Test results as given in publication PMC7686273 (Bioorganic & medicinal chemistry letters, 2020).

system: not listed separately; assay: clearance in vivo; details: plasma

| clearance [mL/min/kg] | SMILES |
| --- | --- |
| 70 | CCOC(=O)c1cnc2c(OC)cccc2c1-c1cnc(-c2ccccc2OC)c(OC)c1 [15h] |

target: rat mGlu7 (Rattus norvegicus, UniProt P35400); assay: calcium mobilization assay with rat mGlu7/Gα15/HEK cells; assay type: cell-based; details: not given
Sequence (P35400 35-915): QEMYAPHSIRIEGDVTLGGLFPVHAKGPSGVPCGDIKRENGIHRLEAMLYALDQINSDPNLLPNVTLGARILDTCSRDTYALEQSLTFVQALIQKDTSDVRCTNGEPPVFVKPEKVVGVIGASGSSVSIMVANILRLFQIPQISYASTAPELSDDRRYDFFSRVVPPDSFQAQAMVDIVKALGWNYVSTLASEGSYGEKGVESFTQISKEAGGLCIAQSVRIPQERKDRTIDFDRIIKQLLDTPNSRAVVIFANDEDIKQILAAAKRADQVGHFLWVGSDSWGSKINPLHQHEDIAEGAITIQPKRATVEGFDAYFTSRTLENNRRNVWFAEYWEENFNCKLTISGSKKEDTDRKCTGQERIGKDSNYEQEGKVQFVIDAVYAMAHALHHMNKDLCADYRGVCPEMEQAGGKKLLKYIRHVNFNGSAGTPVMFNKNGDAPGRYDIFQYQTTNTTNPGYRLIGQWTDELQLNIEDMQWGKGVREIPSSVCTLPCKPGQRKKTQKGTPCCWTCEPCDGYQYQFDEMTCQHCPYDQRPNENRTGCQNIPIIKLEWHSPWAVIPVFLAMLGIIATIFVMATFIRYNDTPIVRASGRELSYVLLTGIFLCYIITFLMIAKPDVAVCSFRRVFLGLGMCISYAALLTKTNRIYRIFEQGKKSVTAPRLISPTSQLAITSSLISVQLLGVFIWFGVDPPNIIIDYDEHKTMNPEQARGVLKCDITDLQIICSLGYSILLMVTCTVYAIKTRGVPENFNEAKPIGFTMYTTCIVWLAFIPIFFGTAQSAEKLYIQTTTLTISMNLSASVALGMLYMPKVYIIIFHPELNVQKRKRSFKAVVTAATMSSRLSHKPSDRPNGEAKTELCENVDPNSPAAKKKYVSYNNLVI

| mGlu7 NAM activity in words | fold loss of mGlu7 NAM potency relative to 8 | SMILES |
| --- | --- | --- |
| modest potency | – | CCOC(=O)c1cnc2c(OC)cccc2c1N1CCN(c2cccnc2OC)CC1 [11l] |
| – | ~ 2 fold | CCOC(=O)c1cnc2c(OC)cccc2c1N1CCN(c2ccccc2OC)C(C)C1 (stereo not drawn) [14a] |
| – | ~ 6.5 fold | CCOC(=O)c1cnccc1N1CCN(c2ccccc2OC)CC1 [13a] |
| lost activity | – | CCOC(=O)c1cnc2c(OC)cccc2c1N1CCN(c2ccccc2C)CC1 [11e] |
| competent surrogate | – | CCOC(=O)c1cnc2c(OC)cccc2c1-c1ccn(Cc2ccccc2OC)c1 [15j] |
| sub-micromolar | – | CCOC(=O)c1cnc2c(OC)cc(OC)cc2c1-c1ccc(-c2ccccc2OCC)nc1 [compound 19] |
| not productive | – | CCOC(=O)c1cnc2c(OC)cccc2c1N1CC2(CN(c3ccccc3OC)C2)C1 [14i] |
| – | ~ 6.5 fold | CCOC(=O)c1cnc2sccc2c1N1CCN(c2ccccc2OC)CC1 [13c] |
| sub-micromolar | – | CCOC(=O)c1cnc2c(OC)cc(OC)cc2c1-c1ccc(-c2ccccc2OC)nc1 [compound 18] |
| – | ~ 2 fold | CCOC(=O)c1cnc2c(OC)cccc2c1N1CCN(c2ccccc2OC)CC1C (stereo not drawn) [14b] |
| modest potency | – | CCOC(=O)c1cnc2c(OC)cccc2c1N1CCN(c2nccnc2OC)CC1 [11m] |
| – | ~ 6 fold | CCOC(=O)c1cnc2c(OC)cccc2c1N(C)CCN(C)c1ccccc1OC [14c] |
| inactive | – | CCOC(=O)c1cnc2c(OC)cccc2c1C1CC2CC(C1)N2c1ccccc1OC (stereo not drawn) [14g] |
| lost activity | – | CCOC(=O)c1cnc2c(OC)cccc2c1N1CCN(c2ccccc2C#N)CC1 [11f] |
| lost activity | – | CCOC(=O)c1cnc2c(OC)cccc2c1N1CCN(c2ccccc2Cl)CC1 [11d] |
| equipotent to 8 | – | CCOC(=O)c1cnc2c(OC)cc(OC)cc2c1N1CCN(c2ccccc2OC)CC1 [13f] |
| retained mGlu7 NAM potency | – | CCOC(=O)c1cnc2c(OC)cccc2c1N1CCN(c2ccc(OC)cc2OC)CC1 [11i] |
| – | ~ 6.5 fold | CCOC(=O)c1cnc2ccsc2c1N1CCN(c2ccccc2OC)CC1 [13b] |
| inactive | – | CCOC(=O)c1ccc2c(OC)cccc2c1N1CCN(c2ccccc2OC)CC1 [13d] |
| retained mGlu7 NAM potency | – | CCOC(=O)c1cnc2c(OC)cccc2c1N1CCN(c2c(OC)cccc2OC)CC1 [11j] |
| lost activity | – | CCOC(=O)c1cnc2c(OC)cccc2c1N1CCN(c2ccccc2F)CC1 [11h] |

| SMILES | mGlu7 NAM activity in words | fold loss of mGlu7 NAM potency relative to 8 |
| --- | --- | --- |
| CCOC(=O)c1cnc2c(OC)cccc2c1C1C2CC1CN(c1ccccc1OC)C2 (stereo not drawn) [14f] | inactive | – |

system: not listed separately; assay: stability under cell-based assay conditions; assay type: physicochemical; details: cell buffer

| stability of the ester under cell-based assay conditions | SMILES |
| --- | --- |
| stable | CCOC(=O)c1cnc2c(OC)cccc2c1N1CCN(c2ccccc2OC)CC1 [compound 8] |
